# According to patent US11535643B2, “Macrolides with modified desosamine sugars and uses thereof” (President and Fellows of Harvard College, priority 2015, dated 2022):
# Key:
# Format in all cases: cell-based
# S. aureus = test: Broth dilution MIC determination (CLSI) against S. aureus strains
# Source text: (§1) Minimum inhibitory concentrations (MICs) for macrolides described herein have been determined for unique strains of S. aureus, S. pneumoniae, S. pyogenes, E. faecalis, E. coli, A. baumannii, K. pneumoniae, P. aeruginosa, and H. influenzae, including several multidrug-resistant strains, with a special focus on macrolide resistant mechanisms. Azithromycin and solithromycin were included as control compounds. CLSI standard procedures for broth dilution MIC determination were used. Data for exemplary compounds described herein is shown in Tables M1-M7 and in Tables N1-N4.
# E. coli = test: Broth dilution MIC determination (CLSI) against E. coli strains
# Source text: as §1
# A. baumannii = test: Broth dilution MIC determination (CLSI) against A. baumannii strains
# Source text: as §1
# K. pneumoniae = test: Broth dilution MIC determination (CLSI) against K. pneumoniae strains
# Source text: as §1, with “used.” for “used. Data for exemplary compounds described herein is shown in Tables M1-M7 and in Tables N1-N4.”
# P. aeruginosa = test: Broth dilution MIC determination (CLSI) against P. aeruginosa strains
# Source text: as §1
# [1] = S. aureus ATCC29213, strain MP-12 (Table N4)
# [2] = S. aureus BAA 977 iErm, strain MP-17 (Table N4)
# [3] = S. aureus Clinical-cErm, strain MP-513 (Table N4)
# [4] = S. aureus USA300-msr(a), strain MP-549 (Table N4)
# [5] = E. coli ATCC25922, strain MP-4 (Table N4)
# [6] = E. coli Clinical, strain MP-541 (Table N4)
# [7] = E. coli clinical-cErmB, strain MP-532 (Table N4)
# [8] = E. coli tolC, strain MP-9 (Table N4)
# [9] = A. baumannii ATCC 19606, strain MP-15 (Table N4)
# [10] = A. baumannii Clinical-AZT low, strain MP-577 (Table N4)
# [11] = A. baumannii Clinical-MDR, strain MP-576 (Table N4)
# [12] = K. pneumoniae ATCC 10031, strain MP-14 (Table N4)
# [13] = K. pneumoniae Clinical, strain MP-548 (Table N4)
# [14] = K. pneumoniae Clinical-MDR, strain MP-546 (Table N4)
# [15] = P. aeruginosa ATCC27853, strain MP-3 (Table N4)
# [16] = P. aeruginosa PAO1, strain MP-7 (Table N4)
# [17] = P. aeruginosa mex-oprM-deletion, strain MP-8 (Table N4)
Compound,MIC (S. aureus; [1]),MIC (S. aureus; [2]),MIC (S. aureus; [3]),MIC (S. aureus; [4]),MIC (E. coli; [5]),MIC (E. coli; [6]),MIC (E. coli; [7]),MIC (E. coli; [8]),MIC (A. baumannii; [9]),MIC (A. baumannii; [10]),MIC (A. baumannii; [11]),MIC (K. pneumoniae; [12]),MIC (K. pneumoniae; [13]),MIC (K. pneumoniae; [14]),MIC (P. aeruginosa; [15]),MIC (P. aeruginosa; [16]),MIC (P. aeruginosa; [17])
CCC1OC(=O)C(C)C(=O)C(C)C(OC2OC(C)CC(N(C)CCO)C2O)C(C)(OC)CC(C)CNC(C)C2N(CCCCn3cc(-c4cccc(N)c4)nn3)C(=O)OC12C (centres unmarked) [FSM-120418],16 µg/mL,16 µg/mL,>64 µg/mL,16 µg/mL,8 µg/mL,8 µg/mL,>64 µg/mL,1 µg/mL,16 µg/mL,32 µg/mL,>64 µg/mL,8 µg/mL,64 µg/mL,>64 µg/mL,>64 µg/mL,>64 µg/mL,32 µg/mL
CCC1OC(=O)C(C)C(=O)C(C)C(OC2OC(C)CC(N(C)CCO)C2O)C(C)(OC)CC(C)CN(C)C(C)C2N(CCCCn3cc(-c4cccc(N)c4)nn3)C(=O)OC12C (centres unmarked) [FSM-120419],32 µg/mL,32 µg/mL,>64 µg/mL,32 µg/mL,>64 µg/mL,>64 µg/mL,>64 µg/mL,4 µg/mL,>64 µg/mL,>64 µg/mL,>64 µg/mL,16 µg/mL,>64 µg/mL,>64 µg/mL,>64 µg/mL,>64 µg/mL,>64 µg/mL
CCC1OC(=O)C(C)C(=O)C(C)C(OC2OC(C)CC(N(C)CCCS(C)(=O)=O)C2O)C(C)(OC)CC(C)CNC(C)C2N(CCCCn3cc(-c4cccc(N)c4)nn3)C(=O)OC12C (centres unmarked) [FSM-120420],32 µg/mL,32 µg/mL,>64 µg/mL,64 µg/mL,64 µg/mL,32 µg/mL,>64 µg/mL,2 µg/mL,32 µg/mL,64 µg/mL,>64 µg/mL,16 µg/mL,>64 µg/mL,>64 µg/mL,>64 µg/mL,>64 µg/mL,64 µg/mL
CCC1OC(=O)C(C)C(=O)C(C)C(OC2OC(C)CC(N(C)CCCS(C)(=O)=O)C2O)C(C)(OC)CC(C)CN(C)C(C)C2N(CCCCn3cc(-c4cccc(N)c4)nn3)C(=O)OC12C (centres unmarked) [FSM-120421],>64 µg/mL,>64 µg/mL,>64 µg/mL,>64 µg/mL,>64 µg/mL,>64 µg/mL,>64 µg/mL,64 µg/mL,>64 µg/mL,>64 µg/mL,>64 µg/mL,64 µg/mL,>64 µg/mL,>64 µg/mL,>64 µg/mL,>64 µg/mL,>64 µg/mL
